pIC50: −log10 of the molar value.
Legend:
[1] = system: leukocyte recruitment into air pouch; test: Air pouch model of acute inflammation (carrageenan); assay type: in vivo, mice; settings: 4 mg/kg i.p. 15 min before 1% carrageenan, exudate after five hours
Description: Air pouches were produced according to standard procedures (Garcia-Ramallo et al., 2002) using C57bk6 mice (wild-type) or strain-matched mice lacking both copies of the MIF gene (MIF−/−) by injecting sterile air s.c. on day 0 (6 ml) and day 3 (3 ml). […] 15 min. later the animals were challenged by injecting 1 ml 1% carrageenan (in PBS) into the air pouch cavity. Five hours after carrageenan injection the animals were sacrificed, the pouches washed with PBS, exudates collected, and the total number of infiltrating cells quantitated.

[2] = system: LPS-stimulated RAW 267.4 cells; test: TNF secretion from LPS-stimulated RAW macrophages (ELISA); assay type: cell-based; settings: 0.1 μg/ml LPS
Description: After 16 h, cell culture supernatants were collected for determination of TNF concentration by enzyme-linked immunosorbent assay (R & D Systems).

[3] = system: cecal ligation and puncture (CLP) model of sepsis; test: Cecal ligation and puncture (CLP) model of sepsis; assay type: in vivo, mice
Description: In anesthetized male Balb/C mice (ketamine 100 mg/kg and xylazine 8 mg/kg administered intramuscularly), abdominal access was gained via a midline incision. The cecum was isolated and ligated with a 6-0 silk ligature below the ileocecal valve, and the cecum punctured once with a 22 G needle, stool (approximately 1 mm^3) extruded from the hole, and the cecum placed back into the abdominal cavity. The abdomen was closed with two layers of 6-0 Ethilon sutures. Antibiotics were administered immediately after CLP (Premaxin 0.5 mg/kg, subcutaneously, in a total volume of 0.5 ml/mouse) and a single dose of resuscitative fluid (normal saline solution) was administered subcutaneously (20 ml/kg-body weight) immediately after CLP. […] Additionally, two injections were given on day 2 and day 3.
The cecal ligation and puncture experiment was repeated in a second group of animals. The experimental procedure was identical to that used in the preceding example.

[4] = cited from earlier work

SMILES	leukocyte recruitment (number of infiltrating cells), wild-type mice ([1]; C57bk6 wild-type, p<0.04 relative to vehicle)	leukocyte recruitment (number of infiltrating cells), MIF knockout mice ([1]; MIF−/− mice, n.s.)	pIC50 ([2]; RAW267.4, 30 minutes preincubation, supernatants after 16 h, read-out: IC50, inhibition of the release of TNFα)	survival ([3]; male Balb/C mice, 4 mg/kg i.p. 24 hours after CLP, further injections on day 2 and day 3, n=10, vehicle 2/10)	survival, repeat experiment in a second group of animals ([3]; procedure identical to the first CLP experiment, FIG. 4)	inhibitory effect on TNF release compared with ISO-1 ([2]; 0.01-50 μM, 16 h)	free (unbound) hormone as percentage of the total hormone in plasma [4]
N[C@H](Cc1cc(I)c(Oc2cc(I)c(O)c(I)c2)c(I)c1)C(=O)O [D-T4, dextrothyroxine]	inhibits leukocyte recruitment	not in MIF knockout animals	6.00	6/10	dramatically increases survival	–	–
N[C@@H](Cc1cc(I)c(Oc2cc(I)c(O)c(I)c2)c(I)c1)C(=O)O [L-T4, L-thyroxine]	–	–	–	–	–	more potent than ISO-1	about 0.03%

Reference: patent publication US20110136911A1 (The Feinstein Institute for Medical Research, priority 2007, published 2011)
